How the values were obtained:
[1] = target: Calcium/calmodulin-dependent protein kinase type 1D (Homo sapiens) (UniProt Q8IU85); conditions: at 10 µM
[2] = target: T1, Serine/threonine-protein kinase Nek11 (Homo sapiens) (UniProt Q8NG66); assay: Selectivity interaction (KinomeScan (DiscoverX)) EUB0000655a NEK11; conditions: at 10 µM
T1 sequence (whole entry): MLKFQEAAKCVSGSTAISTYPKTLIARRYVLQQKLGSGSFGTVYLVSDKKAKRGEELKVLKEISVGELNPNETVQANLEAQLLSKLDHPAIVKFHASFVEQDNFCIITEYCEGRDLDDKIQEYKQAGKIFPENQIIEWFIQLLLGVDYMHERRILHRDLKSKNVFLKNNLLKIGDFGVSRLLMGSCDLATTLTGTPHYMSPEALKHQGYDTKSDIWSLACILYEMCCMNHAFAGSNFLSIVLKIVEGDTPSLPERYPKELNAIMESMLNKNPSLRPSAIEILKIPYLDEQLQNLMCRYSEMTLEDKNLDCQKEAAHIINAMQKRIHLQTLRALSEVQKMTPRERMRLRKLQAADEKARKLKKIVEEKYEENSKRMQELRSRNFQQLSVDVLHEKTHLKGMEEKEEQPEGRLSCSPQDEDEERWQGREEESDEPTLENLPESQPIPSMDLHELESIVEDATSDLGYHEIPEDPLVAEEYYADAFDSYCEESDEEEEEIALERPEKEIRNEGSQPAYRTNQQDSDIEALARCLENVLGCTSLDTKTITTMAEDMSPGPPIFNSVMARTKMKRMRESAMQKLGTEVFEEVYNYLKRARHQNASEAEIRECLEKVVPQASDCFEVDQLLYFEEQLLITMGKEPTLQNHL

[3] = target: Fibroblast growth factor receptor 2 (Homo sapiens) (UniProt P21802); assay: Selectivity interaction (ProQinase) EUB0000171b FGFR2
Chain of Fibroblast growth factor receptor 2 (Homo sapiens) (P21802 22-821 limits assumed): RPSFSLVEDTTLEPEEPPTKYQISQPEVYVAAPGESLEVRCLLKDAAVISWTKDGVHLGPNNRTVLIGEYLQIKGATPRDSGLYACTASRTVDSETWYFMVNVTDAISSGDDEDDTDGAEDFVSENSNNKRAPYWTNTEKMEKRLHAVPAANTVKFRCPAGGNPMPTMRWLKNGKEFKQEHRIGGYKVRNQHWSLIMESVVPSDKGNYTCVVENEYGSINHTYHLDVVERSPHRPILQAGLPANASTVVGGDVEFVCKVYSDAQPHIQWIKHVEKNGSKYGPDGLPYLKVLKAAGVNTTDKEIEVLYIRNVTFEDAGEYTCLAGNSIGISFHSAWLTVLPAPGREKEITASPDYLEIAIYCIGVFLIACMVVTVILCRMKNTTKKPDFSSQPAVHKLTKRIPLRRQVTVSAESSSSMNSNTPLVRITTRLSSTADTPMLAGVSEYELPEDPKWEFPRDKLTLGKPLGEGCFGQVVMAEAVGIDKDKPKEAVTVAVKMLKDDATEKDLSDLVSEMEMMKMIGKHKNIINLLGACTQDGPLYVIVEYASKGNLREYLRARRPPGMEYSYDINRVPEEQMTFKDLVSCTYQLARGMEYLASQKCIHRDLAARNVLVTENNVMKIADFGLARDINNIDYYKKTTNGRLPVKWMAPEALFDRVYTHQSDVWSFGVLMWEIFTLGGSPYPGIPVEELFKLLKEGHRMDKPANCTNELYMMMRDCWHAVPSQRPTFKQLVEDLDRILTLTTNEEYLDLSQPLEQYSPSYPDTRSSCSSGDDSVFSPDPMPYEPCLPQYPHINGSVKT

[4] = target: Serine/threonine-protein kinase 24 (Homo sapiens) (UniProt Q9Y6E0); conditions: at 10 µM
Chain of Serine/threonine-protein kinase 24 (Homo sapiens) (Q9Y6E0 whole entry, looked up): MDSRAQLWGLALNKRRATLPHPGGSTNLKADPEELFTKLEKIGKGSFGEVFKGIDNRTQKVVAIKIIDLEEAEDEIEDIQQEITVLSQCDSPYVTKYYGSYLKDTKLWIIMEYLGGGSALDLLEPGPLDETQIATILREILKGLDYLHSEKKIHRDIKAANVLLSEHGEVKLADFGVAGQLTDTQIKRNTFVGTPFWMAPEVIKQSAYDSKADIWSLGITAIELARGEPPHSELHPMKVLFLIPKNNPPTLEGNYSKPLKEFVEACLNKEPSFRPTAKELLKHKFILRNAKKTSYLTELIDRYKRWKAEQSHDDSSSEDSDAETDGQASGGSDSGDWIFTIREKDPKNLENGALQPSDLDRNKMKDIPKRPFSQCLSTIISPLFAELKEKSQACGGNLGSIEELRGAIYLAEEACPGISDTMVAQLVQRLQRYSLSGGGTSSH

[5] = target: Ribosomal protein S6 kinase alpha-4 (Homo sapiens) (UniProt O75676); assay: Selectivity interaction (KinomeScan (DiscoverX)) EUB0000311b RPS6KA4; conditions: at 1 µM
Chain of Ribosomal protein S6 kinase alpha-4 (Homo sapiens) (O75676 whole entry, looked up): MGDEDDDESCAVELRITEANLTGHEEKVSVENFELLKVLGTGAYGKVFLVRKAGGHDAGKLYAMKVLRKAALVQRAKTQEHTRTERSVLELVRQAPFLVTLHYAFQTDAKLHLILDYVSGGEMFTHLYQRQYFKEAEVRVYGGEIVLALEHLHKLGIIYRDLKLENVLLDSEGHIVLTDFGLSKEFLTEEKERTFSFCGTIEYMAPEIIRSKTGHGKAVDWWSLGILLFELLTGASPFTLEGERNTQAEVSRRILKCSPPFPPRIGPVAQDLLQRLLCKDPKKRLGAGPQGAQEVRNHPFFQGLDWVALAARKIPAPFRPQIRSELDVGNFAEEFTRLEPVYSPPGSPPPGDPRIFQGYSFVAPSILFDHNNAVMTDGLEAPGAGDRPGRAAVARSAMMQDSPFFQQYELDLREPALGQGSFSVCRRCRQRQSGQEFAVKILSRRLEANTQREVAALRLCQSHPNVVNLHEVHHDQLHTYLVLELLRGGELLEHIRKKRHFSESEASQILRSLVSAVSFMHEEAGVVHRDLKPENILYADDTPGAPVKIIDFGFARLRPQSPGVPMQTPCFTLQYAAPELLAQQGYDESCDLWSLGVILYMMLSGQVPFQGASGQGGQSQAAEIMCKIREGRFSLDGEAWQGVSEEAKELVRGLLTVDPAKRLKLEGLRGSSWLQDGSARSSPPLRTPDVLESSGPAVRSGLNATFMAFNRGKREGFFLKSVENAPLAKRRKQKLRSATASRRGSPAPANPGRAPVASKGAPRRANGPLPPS

[6] = target: Tyrosine-protein kinase Lyn (Homo sapiens, UniProt P07948); assay: Selectivity interaction (Kinase panel (Invitrogen)) EUB0000639a LYN; conditions: at 200 nM
Chain of Tyrosine-protein kinase Lyn (P07948 2-512 limits assumed): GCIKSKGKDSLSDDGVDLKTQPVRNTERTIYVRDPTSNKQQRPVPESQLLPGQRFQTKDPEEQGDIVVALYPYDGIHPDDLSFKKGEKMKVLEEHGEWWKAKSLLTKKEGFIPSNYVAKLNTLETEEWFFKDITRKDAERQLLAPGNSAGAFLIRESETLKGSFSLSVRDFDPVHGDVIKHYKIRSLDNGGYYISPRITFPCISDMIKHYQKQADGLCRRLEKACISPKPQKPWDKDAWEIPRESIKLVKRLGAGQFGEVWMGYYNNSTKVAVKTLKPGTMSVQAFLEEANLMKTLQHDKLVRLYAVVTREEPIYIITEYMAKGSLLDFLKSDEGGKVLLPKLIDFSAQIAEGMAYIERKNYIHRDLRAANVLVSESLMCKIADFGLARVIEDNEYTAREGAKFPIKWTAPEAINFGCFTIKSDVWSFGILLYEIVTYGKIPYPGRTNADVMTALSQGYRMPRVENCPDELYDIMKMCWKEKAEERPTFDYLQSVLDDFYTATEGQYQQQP

[7] = target: T2, Serine/threonine-protein kinase BRSK1 (Homo sapiens) (UniProt Q8TDC3); assay: Selectivity interaction (Kinase screening (Nanosyn)) EUB0000604a BRSK1
T2 sequence (whole entry): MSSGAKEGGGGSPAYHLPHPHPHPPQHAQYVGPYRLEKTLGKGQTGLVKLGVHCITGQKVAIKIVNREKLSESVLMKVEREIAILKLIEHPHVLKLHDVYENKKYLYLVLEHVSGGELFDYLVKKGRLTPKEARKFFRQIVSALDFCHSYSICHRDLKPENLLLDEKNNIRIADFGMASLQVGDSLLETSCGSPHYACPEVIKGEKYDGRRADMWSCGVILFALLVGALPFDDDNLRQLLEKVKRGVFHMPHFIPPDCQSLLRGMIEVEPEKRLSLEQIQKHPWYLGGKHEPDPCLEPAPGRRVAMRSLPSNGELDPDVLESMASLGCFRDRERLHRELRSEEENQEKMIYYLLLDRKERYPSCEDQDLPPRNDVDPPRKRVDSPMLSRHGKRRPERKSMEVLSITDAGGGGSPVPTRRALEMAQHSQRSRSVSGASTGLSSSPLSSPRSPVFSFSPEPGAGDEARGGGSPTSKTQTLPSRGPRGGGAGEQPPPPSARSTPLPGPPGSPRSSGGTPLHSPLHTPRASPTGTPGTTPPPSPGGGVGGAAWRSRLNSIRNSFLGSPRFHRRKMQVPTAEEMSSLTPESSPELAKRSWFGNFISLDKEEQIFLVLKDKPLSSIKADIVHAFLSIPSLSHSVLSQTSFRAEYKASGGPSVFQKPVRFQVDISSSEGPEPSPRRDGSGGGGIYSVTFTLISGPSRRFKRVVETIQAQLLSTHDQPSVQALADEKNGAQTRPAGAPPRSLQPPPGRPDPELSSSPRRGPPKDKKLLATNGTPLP

[8] = target: Calcium/calmodulin-dependent protein kinase type 1 (Homo sapiens) (UniProt Q14012); assay: Selectivity interaction (KinomeScan (DiscoverX)) EUB0001619a CAMK1; conditions: at 1 µM
Chain of Calcium/calmodulin-dependent protein kinase type 1 (Homo sapiens) (Q14012 whole entry, looked up): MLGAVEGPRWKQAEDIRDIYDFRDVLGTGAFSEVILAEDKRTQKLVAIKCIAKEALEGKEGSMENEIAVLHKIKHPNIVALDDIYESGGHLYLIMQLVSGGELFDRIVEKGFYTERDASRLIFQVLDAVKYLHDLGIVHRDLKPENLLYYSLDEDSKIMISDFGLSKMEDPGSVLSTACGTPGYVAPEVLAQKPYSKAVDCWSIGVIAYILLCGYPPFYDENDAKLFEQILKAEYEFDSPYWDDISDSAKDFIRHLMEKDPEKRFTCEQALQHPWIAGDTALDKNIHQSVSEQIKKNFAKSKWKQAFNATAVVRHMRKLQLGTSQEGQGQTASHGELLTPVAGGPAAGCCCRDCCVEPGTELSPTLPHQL

[9] = target: T3, Inhibitor of nuclear factor kappa-B kinase subunit alpha (Homo sapiens) (UniProt O15111); assay: Selectivity interaction (ActivX KiNativ screen (ex vivo kinase selectivity in human PBMCs)) EUB0001619a CHUK; assay type: cell-based; conditions: PBMC, at 1 µM
T3 sequence (whole entry): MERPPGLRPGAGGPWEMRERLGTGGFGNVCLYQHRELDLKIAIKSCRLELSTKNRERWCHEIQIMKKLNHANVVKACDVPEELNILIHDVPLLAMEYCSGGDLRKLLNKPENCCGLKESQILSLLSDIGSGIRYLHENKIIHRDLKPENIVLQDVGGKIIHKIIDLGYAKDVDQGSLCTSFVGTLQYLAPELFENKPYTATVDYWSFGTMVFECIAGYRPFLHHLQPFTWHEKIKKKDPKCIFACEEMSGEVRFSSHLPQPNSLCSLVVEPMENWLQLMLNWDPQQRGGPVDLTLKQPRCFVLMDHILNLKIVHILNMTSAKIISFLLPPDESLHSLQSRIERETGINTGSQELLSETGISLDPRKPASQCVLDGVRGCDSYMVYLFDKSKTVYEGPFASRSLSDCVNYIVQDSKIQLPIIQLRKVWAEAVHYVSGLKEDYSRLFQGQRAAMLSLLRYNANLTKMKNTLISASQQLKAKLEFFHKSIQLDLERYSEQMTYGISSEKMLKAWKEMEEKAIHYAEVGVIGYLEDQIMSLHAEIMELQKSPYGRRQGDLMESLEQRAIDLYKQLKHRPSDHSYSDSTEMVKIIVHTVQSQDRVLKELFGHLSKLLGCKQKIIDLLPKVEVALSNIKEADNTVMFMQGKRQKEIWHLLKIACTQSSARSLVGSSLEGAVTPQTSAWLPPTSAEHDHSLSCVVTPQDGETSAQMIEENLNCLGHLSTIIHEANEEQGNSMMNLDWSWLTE

[10] = target: Serine/threonine-protein kinase Nek7 (Homo sapiens) (UniProt Q8TDX7); assay: Selectivity interaction (ActivX KiNativ screen (ex vivo kinase selectivity in human PBMCs)) EUB0001619a NEK7; assay type: cell-based; conditions: PBMC, at 1 µM
Chain of Serine/threonine-protein kinase Nek7 (Homo sapiens) (Q8TDX7 whole entry, looked up): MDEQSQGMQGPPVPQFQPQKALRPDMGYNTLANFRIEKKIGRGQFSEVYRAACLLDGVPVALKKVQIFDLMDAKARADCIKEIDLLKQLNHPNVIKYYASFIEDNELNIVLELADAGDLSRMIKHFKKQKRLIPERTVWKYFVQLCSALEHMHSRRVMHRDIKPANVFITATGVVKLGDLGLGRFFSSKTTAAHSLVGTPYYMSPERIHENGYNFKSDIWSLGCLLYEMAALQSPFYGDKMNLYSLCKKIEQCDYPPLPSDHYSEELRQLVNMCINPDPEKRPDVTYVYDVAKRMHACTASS

Chain of Calcium/calmodulin-dependent protein kinase type 1D (Homo sapiens) (Q8IU85 whole entry, looked up): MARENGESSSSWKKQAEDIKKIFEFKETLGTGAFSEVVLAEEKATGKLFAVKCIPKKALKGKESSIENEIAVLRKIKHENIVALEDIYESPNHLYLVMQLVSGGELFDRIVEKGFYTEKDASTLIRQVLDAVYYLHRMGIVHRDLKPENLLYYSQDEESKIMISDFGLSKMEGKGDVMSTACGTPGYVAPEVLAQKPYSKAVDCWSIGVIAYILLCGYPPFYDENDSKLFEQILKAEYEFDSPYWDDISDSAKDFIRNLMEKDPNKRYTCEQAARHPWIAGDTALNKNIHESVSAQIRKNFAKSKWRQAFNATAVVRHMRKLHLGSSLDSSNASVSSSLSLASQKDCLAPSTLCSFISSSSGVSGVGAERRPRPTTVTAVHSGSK

CCN(CC)CCCCNc1ncc2cc(-c3cc(OC)cc(OC)c3)c(NC(=O)NC(C)(C)C)nc2n1
% of control [1]: 100%

CN(C)CCOc1ccc(-c2nc(-c3ccncc3)c(-c3ccc4c(c3)CC/C4=N\O)[nH]2)cc1
% of control [2]: 81%

C=CC(=O)Nc1cccc(C(=O)Nc2ccc(Nc3cc(-c4[nH]c(SC)nc4C)ccn3)cc2)c1
% of control ([3]; at 1 µM): 105% | % of control ([3]; at 5 µM): 87%

Cc1cc([C@@H](C)Nc2ccccc2C(=O)O)c2nc(N3CCOCC3)cc(=O)n2c1 [AZD-6482]
% of control [4]: 100%

CCc1ccccc1C(=O)Nc1n[nH]c2c(C)c(F)c(C3C(C#N)=C(C)N(C)C(C)=C3C#N)cc12 [BAY-3827]
% of control [5]: 8.9%

CC[C@@H]1[C@H](F)C(=O)N[C@@H]1COc1nccc2cc(C(N)=O)c(OC)cc12 [ZIMLOVISERTIB]
% of inhibition [6]: 6.8%

Cc1cnc(Nc2ccc(F)cc2Cl)nc1-c1c[nH]c(C(=O)N[C@H](CO)c2cccc(Cl)c2)c1
% of inhibition [7]: 0%

N#Cc1cccc(-c2c[nH]c3ncnc(N4CCOCC4)c23)c1
% of control [8]: 89% | % of inhibition [9]: -7% | % of inhibition [10]: 7%
